Experimental data taken from patent US6028102A, “Anticonvulsant drugs and pharmaceutical compositions thereof” (priority 1998, dated 2000).
“Also recorded” adds a separate entry of the source.

Tests used:
[1] = Blood-brain-barrier crossing after iv injection to rats; assay type: in vivo; details: 25 mg
Experimental: (§1) In two separate experiments cold (unlabeled) Z-glycinamdie and Z-glucine were injected intravenously to male rats. For the experiments, the two compounds were dissolved in 0.2 mL of DMSO and were injected at a dose of 25 mg. Blood samples (8 mL each) were collected from the ascending vena cava of an individual rat at 5, 10, 20, 30, 45, 60, 90, 120, 150, 180, 240, 300, 360 and 480 minutes after administering the drug dose. Three rats were sacrificed for each of the aforementioned time measurements and the plasma or tissue obtained from each rat for each time point was averaged. Plasma was immediately separated by centrifugation at 3000 g for 15 minutes and stored at -20° C. until analyzed. Brain and liver were quickly removed at the same time intervals under light ether anesthesia, the excised tissues were immersed in liquid nitrogen for a few minutes and stored at -70° C. until analyzed. Four rats were kept in metabolic cages and the cumulative urine was collected from each rat for 480 minutes after dosing.

[2] = Partitioning study, blood-plasma concentration ratio; assay type: in vitro ADME; details: dog blood, 25° C., 5-40 mg/L
Experimental: The blood-plasma concentration ratio of compounds VII and IX (partitioning study) was carried out at room temperature (25° C.) by spiking known amounts of the compound in six samples of fresh blood taken from a dog prior to drug administration. N-acetyl, N'-benzylglycinamide and Z-glycinamide concentrations were 5, 10, 15, 20, 30 and 40 mg/L. Each blood sample was centrifuged immediately after spiking and the separation of the plasma was carried out according to the procedure described hereinabove. Plasma levels of the two compounds VII and IX were determined by HPLC.

[3] = Metabolism and urinary excretion in rats; assay type: in vivo; details: iv
Experimental: as §1
In rats […] of the N-benzyloxycarbonylglycinamide (IX) dose administered is metabolized to Z-glycine and excreted in the urine with the remaining 15% excreted as N-benzyloxycarbonylglycinamide (IX).

[4] = Pharmacokinetic analysis following iv administration to dogs; assay type: in vivo; details: for clearance: CL
Experimental: The experiments were carried out on six male dogs (mongrels), ranging in weight between 18 and 22 kg. In a randomized cross over design, each dog was injected intravenously (in 1.5 mL of DMSO) with a dose of 400 mg of N-acetyl,N'-benzylglycinamide (VII), 404 mg (on dose equivalent to 400 mg of compound VII) of Z-glycinamide (IX) and 406 mg of Z-glycine (VIII). Urine was collected systematically for 12 hours after dosing, by means of an indwelling catheter.
Venous blood samples (6 mL) were collected via an indwelling catheter (from the cephalic vein) at specified intervals following injection (0, 5, 10, 20, 30, 45 minutes and 1, 1.5, 2, 2.5, 3, 4, 5, 6, 7, 8, 10 and 12 hours respectively). The plasma was then immediately separated by centrifugation at 3000 g for 15 minutes and stored at -20° C. Before each assay, the plasma was allowed to reach room temperature, vortexed, centrifuged and the residual clot removed.
Urine samples were collected via a urine catheter at specified intervals following injection (0, 1, 2, 3, 4, 5, 6, 7, 8, 9, 10 and 12 hours respectively), the samples volume were measured and the urine samples were stored at -20° C. Plasma and urine levels of compounds VII, VIII and IX were then assayed by a HPLC assay described herein below.
HPLC Assay for Monitoring N-acetyl,N'-benzylglycinamide (VII) and N-benzyloxycarbonylglycinamide (IX) in Dog Plasma and Urine
Plasma samples are allowed to reach room temperature, vortexed and centrifuged. The plasma was then assayed as follows:
To 0.5 mL of plasma, 10 μg of an internal standard (N-benzyl-oxycarbonylglycinamide (IX)) and 4 mL of tert-butylmethylether were added. The mixture was vigorously vortexed for 30 seconds, centrifuged for 10 minutes at 3000 g, the organic phase was separated and evaporated to dryness (using a vortex evaporator). To the residue, 80 μl of methanol were added, the mixture was vortexed and 30 μl were injected into the HPLC (Schimadzu SCL-10A with a UV-visible detector model SPD-10A).
Urine samples are allowed to reach room temperature, vortexed and centrifuged. The urine was then assayed as follows:
To 0.25 mL of urine, 10 μg of internal standard (N-benzyl-oxycarbonylglycinamide (IX)), 100 μl of hydrochloric acid solution (1 N) and 4 mL of tert-butylmethylether were added. The mixture was vigorously vortexed for 30 seconds and centrifuged for 10 minutes at 3000 g, the organic phase was separated and transferred to another test tube containing 0.5 mL of sodium hydroxide solution (1N), the mixture was vigorously vortexed for 30 seconds, centrifuged for 10 minutes at 3000 g, the organic phase was separated and evaporated to dryness (using a vortex evaporator). To the residue, 80 μl of methanol were added, the mixture was vortexed and 30 μl were injected into the HPLC.
HPLC conditions: HPLC column; Hypersil ODS (C-18) 5μ, 4.6×150 mm; Wavelength: 258 nm; Mobile phase: 60% water, 40% methanol and 0.01% trifluoroacetic acid.
The same assay was used for monitoring N-benzyloxycarbonyl-glycinamide (IX) in dog plasma and dog urine using N-acetyl,N'-benzylglycinamide as an internal standard.
HPLC Assay for Monitoring Z-glycine (VIII) in Dog Plasma and Urine
To 0.5 mL of plasma, 10 μg of internal standard (Z-GABA), 100 μl of hydrochloric acid solution (1N) and 5 mL of tert-butylmethylether were added. The mixture was vigorously vortexed for 30 seconds, centrifuged for 10 minutes at 3000 g, the organic phase was separated and evaporated to dryness (using a vortex evaporator). To the residue, 100 μl of mobile phase were added, the mixture was vortexed and 30 μl were injected to the HPLC.
Urine samples was allowed to reach room temperature, vortexed and centrifuged. The urine was then assayed as follows:
To 0.1 mL of urine, 30 μg of internal standard (Z-GABA) and 5 mL of tert-butylmethylether were added. The mixture was vigorously vortexed for 30 seconds, centrifuged for 10 minutes at 3000 g, the organic phase was separated off. […]

[5] = subcutaneous pentylenetetrazol test (sc Met), ip to mice; assay type: in vivo
Experimental: (§2) Screening of Anticonvulsant Activity
(§3) Compounds I-XI were screened in carworth farm #1 mice (ip--in a volume of 0.01 mL/g of body weight) and sprague-Dawley rats (po--in a volume of 0.004 mL/g of body weight) for their anticonvulsant activity and neurotoxicity by the NIH epilepsy Branch [Porter et al, 1984]. The screening procedure involved the following:
(§4) 1) the maximal electroshock (MES) test, which measures seizure spread; 2) the subcutaneous pentylenetetrazol test (sc Met test) which measures seizure threshold; and 3) the rotored ataxia test which assesses neurotoxicity.
(§5) ED50 - Effective dose in 50% of the test animals.

[6] = Blood stability study in dog blood; assay type: in vitro ADME
Experimental: Blood samples (4 mL) were then collected at the following times: 0, 1, 2, 3, 4, 5 and 6 hours. Plasma was immediately separated and the compounds concentrations in the plasma assayed by HPLC.

[7] = rotored ataxia test (neurotoxicity), ip to mice; assay type: in vivo; details: for TD50: mouse, in vivo, ip
Experimental: as §2, §3, §4
TD50 - Neurotoxic dose in 50% of the test animals.

[8] = Screening of anticonvulsant activity; assay type: in vivo, mice; details: for anticonvulsant activity in words: overall finding of the study
Experimental: as §2, §3, §4
Applicants therefore decided to derivatize glycinamide and the above dipeptides by synthesizing their N-acetyl and N'-benzyl derivatives (compounds IV-VIII). […] Therefore, this compound was further analyzed quantitatively and its ED50 data and protective indices in comparison to phthaloyl glycinamide and valproyl glycinamide--TV 1901 [17] are presented in Table 2. As a consequence of their anticonvulsant activity, the pharmacokinetics of compounds VII and IX were investigated following iv administration (400 mg) to six dogs, and the mean plasma levels of compounds VII and IX are presented in FIGS. 1 and 2, respectively.

[9] = maximal electroshock (MES) test, ip to mice; assay type: in vivo; details: for ED50: Mus musculus
Experimental: as §2, §3, §4
Anticonvulsant activity and neurotoxicity of N-acetyl, N'-
benzylglycinamide (VII) and N-benzyloxycarbonylglycinamide
(IX) following ip administration to mice in comparison to
phthaloylglycinamide and N-valproylglycinamide^a.
MES Maximal electroshock.
as §5

[10] = mice; Kohn et al 1988, 1990, 1991; Conley and Kohn, 1987; cited from earlier work
Stability in dog plasma = assay type: in vitro ADME; details: 37° C. and 20° C.
[11] = 6 hours at physiological conditions (37° C.)

Row | Structure (SMILES) | CL ([4]; dog, in vivo) [L/h] | half-life ([4]; dog, in vivo) [h] | hepatic extraction ratio ([4]; dog, in vivo) | clearance ([4]; dog, in vivo) [mL/min] | MRT ([4]; dog, in vivo, MRT) [h] | Vd ([4]; dog, in vivo, VSS) [L] | Vd ([4]; dog, in vivo, Vss) [L] | stability in dog blood [6, 11] | TD50 [7] [mg/kg] | anticonvulsant activity in words [8] | PI, MES (Protective index, ratio of TD50 to ED50) [9] | ED50 [9] [mg/kg] | also measured
1 | NC(=O)CNC(=O)OCc1ccccc1 [IX, N-benzyloxycarbonylglycinamide] | 10.7 ± 4.3 | 2.3 ± 1.3 | 0.02 | 183 | 3.3 ± 1.8 | 33 ± 10 | 33 ± 10 | stable | 230 | showed anticonvulsant activity in mice; also recorded: active | 5.0 | 46 | crossing of the blood-brain-barrier [1]: crossed the blood-brain-barrier more readily than does Z-glycine; plasma to blood ratio [2]: 0.95±0.05; dose metabolized to Z-glycine and excreted in the urine ([3]; rat, in vivo, 480 min): 75%; site of metabolism ([3]; rats): occurs primarily in the liver; metabolised ([4]; dog, in vivo): 80 ± 14%; pharmacokinetics and elimination in words ([4]; dogs): mainly metabolized to Z-glycine; also recorded: eliminated from the body mainly by metabolism; pharmacokinetics and elimination in words ([4]; dogs, listed as Z-glycinamide): mainly metabolized to the inactive Z-glycine; PI, sc Met (Protective index, ratio of TD50 to ED50) [5]: 2.4; ED50 ([5]; Mus musculus): 95 mg/kg
2 | CC(=O)NCC(=O)NCc1ccccc1 [compound VII, N-Acetyl,N'-benzylglycinamide] | 6.8 ± 0.84 | 2.1 ± 0.4 | 0.0125 | 107 | 3.3 ± 0.8 | 21 ± 4 | 20 ± 4 | unstable | > 200 | active | 2.3 | 88 | MRT ([4]; dog, in vivo): 3.0 ± 0.6 h; pharmacokinetics and elimination in words ([4]; dog, in vivo): eliminated from the body mainly by metabolism; t1/2 ([4]; dog, in vivo): 2.1 ± 0.5 h; Vd ([4]; dog, in vivo, Vβ): 19 ± 6 L; stability in dog blood ([6]; 20° C.): unstable; neurotoxic signs ([7]; at a dose as high as 300 mg/kg): did not show neurotoxic signs; anticonvulsant activity ([8]; ip administration of 100 mg/kg to mice): showed anticonvulsant activity; anticonvulsant activity in MES test [10]: active at a higher dose of 300 mg/kg; stability in dog plasma (Stability in dog plasma): stable
